# Results taken from patent US20040258662A1, “Antineoplastic agents” (Wyeth, priority 2003, published 2004).
# Tests used:
# HTB-44 human renal tumor = HTB-44 human renal tumor xenograft test procedure in nude mice; assay type: in vivo; design: Tumor mass, % of vehicle control, Week 0 / Tumor mass, % of vehicle control, Week 2 / Tumor mass, % of vehicle control, Week 4: concentration or dose not given beside the values; settings: for effect on tumor growth (in words): CCI-779 25 mg/kg iv weekly or IFN-α 1 million units ip 3 times per week; for Tumor mass, Week 0 / Tumor mass, Week 2 / Tumor mass, Week 4 / Tumor mass, Week 5: CCI-779 25 mg/kg iv once per week; for Tumor mass, Week 0 / Tumor mass, Week 2 / Tumor mass, Week 4: IFN-α 1 × 10^6 units ip 3 times per week; for Tumor mass, Week 0: 4 weeks, tumors about 600 mg at start; for Tumor mass, % of vehicle control, Week 0 / Tumor mass, % of vehicle control, Week 2 / Tumor mass, % of vehicle control, Week 4 / Tumor mass, % of vehicle control, Week 5: same dosing as the tumor mass values; for Tumor mass, Week 5: IFN-α 1 × 10^6 units ip 3 times per week for 4 weeks
# Method: CCI-779 was evaluated in combination with Interferon-alpha (IFN-α) in the HTB44 human mouse xenograft standard pharmacological test procedure of renal cancer. The human renal cell line HTB-44 (also referred to in the scientific literature as A498) is derived from a patient with a clear cell carcinoma that had lost expression of the von Hippel-Lindau (VHL) gene. These types of tumors are representative of the large majority (≈80%) of sporadic renal cell carcinomas.
# CCI-779 was evaluated as a single agent on a weekly schedule against large (>500mg) HTB-44 tumors in nude mouse xenografts. Dosing was from 10 mg/kg to 75 mg/kg intravenously once a week beginning on day 0 when tumors had reached a size of about 500 mm^3.
# Similarly, a dose response of IFN-α as a single agent was performed. […] Therefore, a dose of 1 million units 3 times per week intraperitoneally was chosen to combine with CCI-779 at 25 mg/kg iv once per week. Groups of 10 mice were treated with CCI-779 alone, IFN-α alone, or the combination (Table 1). IFN-α was given on days 1, 3, and 5 and CCI-779 on day 6 of each week for 4 weeks. Dosing began after tumors had reached a size of about 600 mg.
# advanced RCC = experiment: Phase 1 open-label ascending-dose study of CCI-779 plus IFN in RCC patients; assay type: in vivo
# Method: Thus, the combination of CCI-779 and IFN was evaluated in RCC patients (pts) in a phase 1 study.
# In an open-label, ascending-dose, single-arm study, CCI-779 was given IV once weekly, with IFN given subcutaneously 3 times weekly. IFN was given alone the 1st treatment week. The starting dose levels were 6 million units (MU) IFN and 5 mg CCI-779. CCI-779 dose-escalation steps were 10 mg, 15 mg, and 25 mg. Once the maximum dose of CCI-779 is determined, the dose level of IFN can be escalated to 9 MU (at a reduced CCI-779 dose, if necessary). Dose escalation was based on a safety evaluation of pts (≧6/cohort) after 4 weeks of treatment.
# Up to 40 patients are being evaluated at the maximum tolerated dose (MTD). In summary, 71 pts with advanced RCC were enrolled; 27 continue treatment. Patients (73% men, 27% women) had ECOG performance status of 0: 53% and 1: 46% and median age of 59 yrs (range, 35-80); 45% had prior IL-2 treatment. In dose escalation, patients received 6 MU IFNα with CCI-779 at 5 mg (7 pts), 10 mg (6), 15 mg (6), 20 mg (6), or 25 mg (7); 6 pts also received 9 MU IFNα with 15 mg CCI-779. […] To date, 33 additional patients have been accrued at the MTD. […] CCI-779-related adverse events with overall frequency ≧5% (n=53) were leukopenia (25%), hyperlipidemia (15%), asthenia (13%), AST increase (8%), mucositis (6%), anemia (6%), thrombocytopenia (6%), and rash (6%). Four patients were removed from study due to CCI-779-related toxicity. Approximately 50% of MTD patients have required CCI-779 dose reductions in subsequent cycles. Median time on treatment for all cohorts was 7 mo, 36 have continued for >6 mo of whom 9 have continued for >12 mo. Preliminary tumor responses (RECIST) in 55 pts were confirmed partial response, 7 pts (13%); stable disease, 39 (71%, 19 pts ≧6 mo); and progressive disease, 9 (16%).
# [1] = Stability of CCI-779 in parenteral cosolvent formulation; assay type: physicochemical; settings: citric acid at a concentration of less than 0.01% w/v
# Text: In this embodiment, the stability of CCI-779 in parenterally acceptable alcoholic cosolvents is enhanced by addition of an antioxidant to the formulation. Acceptable antioxidants include, but are not limited to, citric acid, d,l-α-tocopherol, BHA, BHT, monothioglycerol, ascorbic acid, propyl gallate, and mixtures thereof. Generally, the parenteral formulations useful in this embodiment of the invention will contain an antioxidant component(s) in a concentration ranging from 0.001% to 1% w/v, or 0.01% to 0.5% w/v, of the cosolvent concentrate, although lower or higher concentrations may be desired. Of the antioxidants, d,l-α-tocopherol is particularly desirable and is used at a concentration of 0.01 to 0.1% w/v with a preferred concentration of 0.075% w/v of the cosolvent concentrate.
# Examples of such chelating agents include, e.g., citric acid, acetic acid, and ascorbic acid (which may function as both a classic antioxidant and a chelating agent in the present formulations). Other chelating agents include such materials as are capable of binding metal ions in solution, such as ethylene diamine tetra acetic acid (EDTA), its salts, or amino acids such as glycine are capable of enhancing the stability of CCI-779. […] Optimal concentrations for the selected antioxidant(s) can be readily determined by one of skill in the art, based upon the information provided herein.
# tumor cells = settings: cited from earlier work
# human tumor xenografts = settings: nude mice, cited from earlier work
# [2] = tested on: human glioblastoma cell line; settings: in vitro; cited from earlier work
compound,measurement,setting,value
"CO[C@H]1C[C@@H]2CC[C@@H](C)[C@@](O)(O2)C(=O)C(=O)N2CCCC[C@H]2C(=O)O[C@H]([C@H](C)C[C@@H]2CC[C@@H](OC(=O)C(C)(CO)CO)[C@H](OC)C2)CC(=O)[C@H](C)/C=C(\C)[C@@H](O)[C@@H](OC)C(=O)[C@H](C)C[C@H](C)/C=C/C=C/C=C/1C [CCI-779, Rapamycin 42-ester with 3-hydroxy-2-(hydroxymethyl)-2-methylpropionic acid]",inhibition of tumor growth,"HTB-44 human renal tumor; single agent, 10 mg/kg to 75 mg/kg iv once a week, tumors about 500 mm^3 on day 0, all doses",30-35%
same,tumor regression at three fold higher dose,"HTB-44 human renal tumor; single agent, 75 mg/kg",did not induce tumor regression
same,effect on tumor growth (in words),HTB-44 human renal tumor; single agent,retardation of tumor growth without tumor regression
same,"Tumor mass, Week 0",HTB-44 human renal tumor,589 mg
same,"Tumor mass, % of vehicle control, Week 0",HTB-44 human renal tumor,100%
same,"Tumor mass, Week 2",HTB-44 human renal tumor,825 mg
same,"Tumor mass, % of vehicle control, Week 2",HTB-44 human renal tumor,80%
same,"Tumor mass, Week 4",HTB-44 human renal tumor,1382 mg
same,"Tumor mass, % of vehicle control, Week 4",HTB-44 human renal tumor,69%
same,"Tumor mass, Week 5",HTB-44 human renal tumor,1539 mg
same,"Tumor mass, % of vehicle control, Week 5",HTB-44 human renal tumor,68%
same,MTD patients requiring CCI-779 dose reductions in subsequent cycles,"advanced RCC; at MTD 15 mg CCI-779, 6 MU IFNα",Approximately 50%
same,"Grade 34 CCI-779-related adverse events, frequency: AST increase","advanced RCC; both, human, in vivo",8%
same,"Grade 34 CCI-779-related adverse events, frequency: anemia","advanced RCC; both, human, in vivo",6%
same,"Grade 34 CCI-779-related adverse events, frequency: asthenia","advanced RCC; both, human, in vivo",13%
same,"Grade 34 CCI-779-related adverse events, frequency: hyperlipidemia","advanced RCC; both, human, in vivo",15%
same,"Grade 34 CCI-779-related adverse events, frequency: leukopenia","advanced RCC; both, human, in vivo",25%
same,"Grade 34 CCI-779-related adverse events, frequency: mucositis","advanced RCC; both, human, in vivo",6%
same,"Grade 34 CCI-779-related adverse events, frequency: rash","advanced RCC; both, human, in vivo",6%
same,"Grade 34 CCI-779-related adverse events, frequency: thrombocytopenia","advanced RCC; both, human, in vivo",6%
same,"CCI-779-related adverse events, frequency: anemia","advanced RCC; human, in vivo",33%
same,"CCI-779-related adverse events, frequency: anorexia","advanced RCC; human, in vivo",33%
same,"CCI-779-related adverse events, frequency: asthenia","advanced RCC; human, in vivo",39%
same,"CCI-779-related adverse events, frequency: chills","advanced RCC; human, in vivo",22%
same,"CCI-779-related adverse events, frequency: diarrhea","advanced RCC; human, in vivo",28%
same,"CCI-779-related adverse events, frequency: fever","advanced RCC; human, in vivo",22%
same,"CCI-779-related adverse events, frequency: hyperlipidemia","advanced RCC; human, in vivo",28%
same,"CCI-779-related adverse events, frequency: leukopenia","advanced RCC; human, in vivo",22%
same,"CCI-779-related adverse events, frequency: nausea","advanced RCC; human, in vivo",39%
same,"CCI-779-related adverse events, frequency: taste perversion","advanced RCC; human, in vivo",22%
same,"Gr 3-4 CCI-779-related AEs: hyperglycemia, number of pts","advanced RCC; human, in vivo",2 pts
same,"Gr 3-4 CCI-779-related AEs: hyperlipidemia, number of pts","advanced RCC; human, in vivo",4 pts
same,"Gr 3-4 CCI-779-related AEs: leukopenia, number of pts","advanced RCC; human, in vivo",3 pts
same,patients removed from study due to CCI-779-related toxicity,"advanced RCC; human, in vivo",Four
same,"CCI-779-related adverse events, frequency: mucositis","advanced RCC; preliminary results, n=18, CCI-779 5-25 mg IV once weekly with IFN 6 MU sc 3 times weekly",44%
same,"CCI-779-related adverse events, frequency: allergic reaction","advanced RCC; preliminary results, n=18, with IFN",22%
same,stability of CCI-779 with citric acid,[1],enhanced the stability
same,growth of tumor cells in vitro,"tumor cells; CNS cancer, leukemia (T-cell), breast, prostate and melanoma lines most sensitive",inhibit the growth of a number of histologically diverse tumor cells
same,cell cycle effect,tumor cells; in vitro,arrested cells in the G1 phase of the cell cycle
same,activity in orthotopic glioma model,human tumor xenografts,active
same,activity against human tumor xenografts,human tumor xenografts; gliomas particularly sensitive,activity against human tumor xenografts of diverse histological types
same,growth factor (platelet-derived)-induced stimulation of human glioblastoma cell line,[2],markedly suppressed
Interferon α [reference compound],"single agent dose response, effectiveness","HTB-44 human renal tumor; 1 million units or 0.5 million units 3 times per week, data not shown",similarly effective
same,effect on tumor growth (in words),HTB-44 human renal tumor; single agent,retardation of tumor growth without tumor regression
same,"Tumor mass, Week 0",HTB-44 human renal tumor,586 mg
same,"Tumor mass, % of vehicle control, Week 0",HTB-44 human renal tumor,100%
same,"Tumor mass, Week 2",HTB-44 human renal tumor,682 mg
same,"Tumor mass, % of vehicle control, Week 2",HTB-44 human renal tumor,66%
same,"Tumor mass, Week 4",HTB-44 human renal tumor,957 mg
same,"Tumor mass, % of vehicle control, Week 4",HTB-44 human renal tumor,48%
same,"Tumor mass, Week 5",HTB-44 human renal tumor,1280 mg
same,"Tumor mass, % of vehicle control, Week 5",HTB-44 human renal tumor,57%
